Series [1] has as its system mice with the gene mutation for Huntington's disease. To be noted: mouse, in vivo; cited from earlier work.
Series [2] deals with Sod2 null mice. The following applies: untreated Sod2 null mice die after approximately 1 week; cited from earlier work.
Series [3] deals with intracellular cystine (circulating white blood cells). The following applies: cited from earlier work.
Series [4] has as its system Sod2 null mice. Kind of series: Administration of cysteamine bitartrate to Sod2 null mice: survival, weight gain, toxicity. The series is classed as in vivo. To be noted: cysteamine bitartrate 30 mg/kg, single dose. How it is done:
Sod2 null mice provide a method for determining the efficacy in vivo of compounds having antioxidant properties, particularly those with mitochondrial efficacy. Without antioxidant efficacy, Sod2 null mice die after approximately 1 week, with antioxidant intervention, the lifespan can be extended 3-fold using powerful catalytic synthetic antioxidants such as EUK-189 (Melov et al., J Neurosci. 21(21):8348-53, 2001).
A single dose of the test agent is administered to the animals, either intraperitoneally or subcutaneously.

In series [5] the test system is FRDA fibroblasts. The following applies: preincubation prior to exposure to BSO; cited from earlier work.

Take `NCCSSCCN` [Cystamine]: in series [1], the “life (survival)” value is “prolong life” and the tremors entry is reported as “alleviate tremors”.
With `CC(=O)O.CCOc1cccc(C=NCCN=Cc2cccc(OCC)c2[O-])c1[O-].[Mn]` [EUK-189], the extension of lifespan in series [2] is recorded as 3 fold.
On to `NCCS` [cysteamine, Cysteamine (HS—CH2—CH2—NH2)], for which the “time to observed decrease in leukocyte cystine” value in series [3] (delivery of cysteamine into the small intestine (WO 2007/089670)) is on record as “within an hour”. The “depletion of intracellular cystine” value in series [3] (taken regularly, measured in circulating white blood cells) is “up to 90%”. In addition, the “weight gain compared to untreated animals” value in series [4] (initial experiment) is “normal”. In addition, the survival analysis entry in series [4] (preliminary experiment) is listed as “inconclusive”.
`COC1=C(OC)C(=O)C(CCCCCCCCCCO)=C(C)C1=O` [idebenone]: in series [5], the “protection from cell death” value was “protected cells from cell death”.
vitamin E: the “protection from cell death” value in series [5] is recorded as “protected cells from cell death”.
